Measurements reported in PubChem BioAssay AID1918935 (Molecular Pharmacology Branch, DTP, NCI, 2023).

System: 324938-238-R-J1-PDC complex spheroid viability
Assay: Anticancer human tumor 324938-238-R-J1-PDC patient-derived bladder carcinoma cell line growth inhibition
Conditions: for IC50: curve of first compound; for viability, T/C: stronger effect = lower value
How it was run: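 Multicellular complex spheroids of tumor cells with human endothelial cells (HUVEC) and mesenchymal stem cells; the LSD1 inhibitor iadademstat was combined with standard-of-care or investigational agents. Top concentration at or near clinical Cmax, half-log dilutions; final DMSO ≤0.25%.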

[1] = second compound 0.1 µM, first compound 0.0316 µM
[2] = second compound 0.1 µM, first compound 0.1 µM
[3] = second compound 0.1 µM, first compound 0.316 µM
[4] = second compound 0.1 µM, first compound 1 µM
[5] = second compound 0.1 µM, first compound 3.16 µM
[6] = second compound 0.1 µM, first compound 10 µM
[7] = second compound 0.316 µM, first compound 0.0316 µM
[8] = second compound 0.316 µM, first compound 0.1 µM
[9] = second compound 0.316 µM, first compound 0.316 µM
[10] = second compound 0.316 µM, first compound 1 µM
[11] = second compound 0.316 µM, first compound 3.16 µM
[12] = second compound 0.316 µM, first compound 10 µM
[13] = second compound 1 µM, first compound 0.0316 µM
[14] = second compound 1 µM, first compound 0.1 µM
[15] = second compound 1 µM, first compound 0.316 µM
[16] = second compound 1 µM, first compound 1 µM
[17] = second compound 1 µM, first compound 3.16 µM
[18] = second compound 1 µM, first compound 10 µM
[19] = second compound 3.16 µM, first compound 0.0316 µM
[20] = second compound 3.16 µM, first compound 0.1 µM
[21] = second compound 3.16 µM, first compound 0.316 µM
[22] = second compound 3.16 µM, first compound 1 µM
[23] = second compound 3.16 µM, first compound 3.16 µM
[24] = second compound 3.16 µM, first compound 10 µM
[25] = second compound 10 µM, first compound 0.0316 µM
[26] = second compound 10 µM, first compound 0.1 µM
[27] = second compound 10 µM, first compound 0.316 µM
[28] = second compound 10 µM, first compound 1 µM
[29] = second compound 10 µM, first compound 3.16 µM
[30] = second compound 10 µM, first compound 10 µM
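Also: spheroids also contain HUVEC and human MSCs and agents combined with iadademstat; spheroids exposed to agents for 7 days before readout.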

Structure (SMILES) | IC50 (second compound 0.1 µM) [nM] | IC50 (second compound 0.316 µM) [nM] | IC50 (second compound 1 µM) [nM] | IC50 (second compound 3.16 µM) [nM] | IC50 (second compound 10 µM) [nM] | viability, T/C [1] [%] | viability, T/C [2] [%] | viability, T/C [3] [%] | viability, T/C [4] [%] | viability, T/C [7] [%] | viability, T/C [8] [%] | viability, T/C [9] [%] | viability, T/C [10] [%] | viability, T/C [13] [%] | viability, T/C [14] [%] | viability, T/C [15] [%] | viability, T/C [16] [%] | viability, T/C [19] [%] | viability, T/C [20] [%] | viability, T/C [21] [%] | also measured
CC(C)c1c(-c2ccccc2)nc2c(C#N)c[nH]n2c1=O + NC1CCC(NC2CC2c2ccccc2)CC1 | > 10000 | > 10000 | > 10000 | > 10000 | > 10000 | 69.7 | 90 | 85.2 | 89.2 | 83 | 84.1 | 84.4 | 84.8 | 87 | 90 | 78.2 | 84.9 | 72.8 | 78.9 | 87.7 | viability, T/C [5]: 82.2%; viability, T/C [6]: 74.6%; viability, T/C [11]: 81.4%; viability, T/C [12]: 78.7%; viability, T/C [17]: 81.6%; viability, T/C [18]: 80.9%; viability, T/C [22]: 80.6%; viability, T/C [23]: 80.1%; viability, T/C [24]: 74.3%; viability, T/C [25]: 66.5%; viability, T/C [26]: 70.7%; viability, T/C [27]: 75.9%; viability, T/C [28]: 75.1%; viability, T/C [29]: 65.6%; viability, T/C [30]: 77.9%
CC1COCCN1c1cc(-c2ccnn2C)c2ccnc(-c3ccn[nH]3)c2n1 (stereo not given) + NC1CCC(NC2CC2c2ccccc2)CC1 | 26 | 40.4 | 36.3 | 25.8 | 21.6 | 49 | 31.5 | 17.3 | 13.4 | 52.5 | 31.2 | 17.4 | 15.2 | 51.8 | 31.2 | 18.7 | 14.8 | 49.7 | 31.8 | 19.9 | viability, T/C (second compound 0.1 µM, first compound 0.00316 µM): 88%; viability, T/C (second compound 0.1 µM, first compound 0.01 µM): 64.2%; viability, T/C (second compound 0.316 µM, first compound 0.00316 µM): 76.9%; viability, T/C (second compound 0.316 µM, first compound 0.01 µM): 80.9%; viability, T/C (second compound 1 µM, first compound 0.00316 µM): 80.8%; viability, T/C (second compound 1 µM, first compound 0.01 µM): 73.2%; viability, T/C (second compound 3.16 µM, first compound 0.00316 µM): 72.8%; viability, T/C (second compound 3.16 µM, first compound 0.01 µM): 59.6%; viability, T/C [22]: 15.5%; viability, T/C (second compound 10 µM, first compound 0.00316 µM): 72.3%; viability, T/C (second compound 10 µM, first compound 0.01 µM): 60.3%; viability, T/C [25]: 44.7%; viability, T/C [26]: 30.8%; viability, T/C [27]: 20.1%; viability, T/C [28]: 14.3%
COc1ccc([C@@H](O)c2cc(-c3ncnc4cc(N5CCOCC5)ccc34)c(F)cc2Cl)nn1 + NC1CCC(NC2CC2c2ccccc2)CC1 | 1750 | 1870 | 1330 | 944 | 1090 | 81.4 | 70.8 | 63.3 | 61.1 | 80.8 | 76.7 | 61.4 | 58 | 72.9 | 73.4 | 65.2 | 50.3 | 70 | 78 | 59.3 | viability, T/C [5]: 42.8%; viability, T/C [6]: 26.8%; viability, T/C [11]: 47.7%; viability, T/C [12]: 28.9%; viability, T/C [17]: 42.6%; viability, T/C [18]: 28.5%; viability, T/C [22]: 48.4%; viability, T/C [23]: 38.3%; viability, T/C [24]: 26.4%; viability, T/C [25]: 64.8%; viability, T/C [26]: 76.5%; viability, T/C [27]: 61.6%; viability, T/C [28]: 50.2%; viability, T/C [29]: 37%; viability, T/C [30]: 26%
